From ChEMBL document CHEMBL4041480, “Natural and synthetic bioactive inhibitors of glycogen synthase kinase” (Eur J Med Chem, 2017) come the findings set out here.

Assay [1] addresses T1, Glycogen synthase kinase-3 beta (Homo sapiens, UniProt P49841).
Assay [2] concerns the target T1, Glycogen synthase kinase-3 beta. This is another data set of the same source.
Assay [3] has the same target. This is another data set of the same source.
Description: Inhibition of full length recombinant human His-tagged GSK3beta expressed in baculovirus expression system using Ser/Thr 9 peptide substrate by Z'-LYTE assay
Assay [4] has the same target. The source holds these as a separate data set.
Description: Inhibition of GST-tagged GSK3beta (unknown origin) expressed in Escherichia coli BL21-CodonPlus (DE3) by Z'-LYTE assay

T1 sequence (P49841 whole entry): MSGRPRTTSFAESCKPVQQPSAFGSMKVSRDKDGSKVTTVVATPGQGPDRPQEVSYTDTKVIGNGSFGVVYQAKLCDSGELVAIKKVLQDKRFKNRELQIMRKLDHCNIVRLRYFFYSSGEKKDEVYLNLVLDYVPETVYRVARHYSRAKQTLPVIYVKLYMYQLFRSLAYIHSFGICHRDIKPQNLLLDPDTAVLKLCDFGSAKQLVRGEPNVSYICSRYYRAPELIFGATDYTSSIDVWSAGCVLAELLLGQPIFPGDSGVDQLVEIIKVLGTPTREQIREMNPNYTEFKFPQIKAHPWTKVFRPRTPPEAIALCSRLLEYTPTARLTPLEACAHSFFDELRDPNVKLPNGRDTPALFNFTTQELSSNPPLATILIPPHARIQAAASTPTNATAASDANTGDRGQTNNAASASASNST

`[Zn]` showed an IC50 in assay [1] of 15000 nM. On the same count and under the same terms, the figure for `N=C1N[C@H]2c3c([nH]c(Br)c3Br)C(=O)C3CCC[C@@]32N1` (stereo not given in full) is 3000 nM. Turning to `O=c1[nH]nc2c(NCCc3ccncc3)cc(Cl)cn12`, the half-inhibitory concentration (IC50) in assay [2] was 111 nM.

In assay [3], `O=C1NC(=O)C(c2cn(CCC3N=CC=N3)c3ccccc23)=C1c1noc2ccccc12` returned a half-inhibitory concentration (IC50) of 0.73 nM. `Cn1cc(C2=C(c3nn(CCCN4CCOCC4)c4ncccc34)C(=O)NC2=O)c2ccccc21` displayed a half-maximal inhibitory concentration (IC50) in assay [4] of 340 nM.

Broadly, the IC50 is the concentration at which inhibition is half-maximal. Lower therefore signals higher potency.
